Read-outs that look alike come from different tables or passages of the source.
Key:
[1] = test system: common (oilseed) sunflower; test: Test C pre-/postemergence herbicide test; assay type: in vivo, Helianthus annuus; conditions: Helianthus annuus, pre-emergence, read-out: Plant response rating, Sunflower
In short: (§1)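 Preemergence: seeds planted and treated with compound in non-phytotoxic solvent with surfactant; postemergence: plants at 2 to 18 cm (1- to 4-leaf stage) sprayed likewise. Kept in greenhouse 12 to 14 days, then visually rated against controls, 0 (no effect) to 100 (complete control).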

common ragweed = test: Test C pre-/postemergence herbicide test; assay type: in vivo, Ambrosia elatior; conditions: Ambrosia artemisiifolia, pre-emergence, read-out: Plant response rating, Ragweed
In short: as §1

corn = test: Test C pre-/postemergence herbicide test; assay type: in vivo, Zea mays; conditions: Zea mays, pre-emergence, 312 h
In short: as §1

redroot pigweed = test: Test A pre-/postemergence herbicide test; assay type: in vivo, Amaranthus retroflexus; conditions: Amaranthus retroflexus, 240 h; for pest or weed control at 500 g/ha: 500 g ai/ha; for pest or weed control at 2000 g/ha: 2000 g ai/ha
In short: (§2)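 Sandy loam soil given preemergence directed spray; plants at 2 to 10 cm, one- to two-leaf stage, sprayed to runoff postemergence, compounds in non-phytotoxic solvent with surfactant. Injury rated visually versus untreated controls after about ten greenhouse days, 0 (no effect) to 100 (complete control); dash means not tested.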

giant foxtail = test: Test C pre-/postemergence herbicide test; assay type: in vivo, Setaria faberi; conditions: Setaria faberi, pre-emergence, 312 h, read-out: Plant response rating, Foxtail, Giant
In short: as §1

kochia = test: Test C pre-/postemergence herbicide test; assay type: in vivo, Kochia scoparia; conditions: Bassia scoparia, pre-emergence, read-out: Plant response rating, Kochia
In short: as §1

barnyardgrass = test: Test A pre-/postemergence herbicide test; assay type: in vivo, Echinochloa crus-galli; conditions: Echinochloa crus-galli, 240 h; for pest or weed control at 500 g/ha: 500 g ai/ha; for pest or weed control at 2000 g/ha: 2000 g ai/ha
In short: as §2

lambsquarters = test: Test C pre-/postemergence herbicide test; assay type: in vivo, Chenopodium album; conditions: Chenopodium album, pre-emergence, read-out: Plant response rating, Lambsquarters
In short: as §1

velvetleaf = test: Test C pre-/postemergence herbicide test; assay type: in vivo, Abutilon theophrasti; conditions: Abutilon theophrasti, pre-emergence, read-out: Plant response rating, Velvetleaf
In short: as §1

large crabgrass = test: Test A pre-/postemergence herbicide test; assay type: in vivo, Digitaria sanguinalis; conditions: Digitaria sanguinalis, 240 h; for pest or weed control at 500 g/ha: 500 g ai/ha; for pest or weed control at 2000 g/ha: 2000 g ai/ha
In short: as §2

[2] = 62 g ai/ha, preemergence, scale 0 to 100
[3] = 500 g ai/ha, scale 0 to 100 (0 no effect, 100 complete control), visual, 12 to 14 days
[4] = 125 g ai/ha, scale 0 (no effect) to 100 (complete control), visual, 12 to 14 days

CCc1nn(C(C)(C)C)cc1C(=O)Nc1cc(C(=O)N(C)C)ccc1F [Compound 222, N-[5-[(dimethylamino)carbonyl]-2-fluorophenyl]-1-(1,1-dimethylethyl)-3-ethyl-1H-pyrazole-4-carboxamide]
pest or weed control at 62 g/ha [1, 2]: 0%
pest or weed control at 250 g/ha ([1]; 250 g ai/ha, scale 0-100): 30%
pest or weed control at 500 g/ha [1, 3]: 30%
pest or weed control at 62 g/ha (common ragweed; [2]): 80%
pest or weed control at 250 g/ha (common ragweed; 250 g ai/ha, scale 0-100): 100%
pest or weed control at 500 g/ha (common ragweed; [3]): 100%
Corn plant response rating (crop injury, 0 = no effect, 100 = complete kill) at 62 g/ha (corn; [2]): 0%
Corn plant response rating (crop injury, 0 = no effect, 100 = complete kill) at 125 g/ha (corn; [4]): 20%
Corn plant response rating (crop injury, 0 = no effect, 100 = complete kill) at 250 g/ha (corn; 250 g ai/ha, scale 0-100): 60%
Corn plant response rating (crop injury, 0 = no effect, 100 = complete kill) at 500 g/ha (corn; [3]): 100%
pest or weed control at 500 g/ha (redroot pigweed; post-emergence, Postemergence, 0 to 100 scale, 0 no effect, 100 complete control, read-out: Pigweed plant response rating): 75%
pest or weed control at 2000 g/ha (redroot pigweed; post-emergence, Postemergence, 0 to 100 scale, 0 no effect, 100 complete control, read-out: Plant response rating, Pigweed): 100%
pest or weed control at 2000 g/ha (redroot pigweed; pre-emergence, Preemergence, visual rating, 0 to 100 scale (0 no effect, 100 complete control), read-out: Pigweed plant response rating): 90%
pest or weed control at 500 g/ha (redroot pigweed; pre-emergence, preemergence, visual injury, 0 to 100 scale (0 no effect, 100 complete control), read-out: Pigweed plant response rating): 90%
pest or weed control at 62 g/ha (giant foxtail; [2]): 20%
pest or weed control at 125 g/ha (giant foxtail; [4]): 85%
pest or weed control at 250 g/ha (giant foxtail; 250 g ai/ha, scale 0-100): 95%
pest or weed control at 500 g/ha (giant foxtail; [3]): 100%
pest or weed control at 62 g/ha (kochia; [2]): 90%
pest or weed control at 125 g/ha (kochia; [4]): 100%
pest or weed control at 250 g/ha (kochia; 250 g ai/ha, scale 0-100): 100%
pest or weed control at 500 g/ha (kochia; [3]): 100%
pest or weed control at 500 g/ha (barnyardgrass; post-emergence, Postemergence, 0 to 100 scale, 0 no effect, 100 complete control, read-out: Barnyardgrass plant response rating): 75%
pest or weed control at 2000 g/ha (barnyardgrass; post-emergence, Postemergence, 0 to 100 scale, 0 no effect, 100 complete control, read-out: Plant response rating, Barnyardgrass): 90%
pest or weed control at 2000 g/ha (barnyardgrass; pre-emergence, Preemergence, visual rating, 0 to 100 scale (0 no effect, 100 complete control), read-out: Barnyardgrass plant response rating): 100%
pest or weed control at 500 g/ha (barnyardgrass; pre-emergence, preemergence, visual injury, 0 to 100 scale (0 no effect, 100 complete control), read-out: Barnyardgrass plant response rating): 95%
pest or weed control at 62 g/ha (lambsquarters; [2]): 100%
pest or weed control at 125 g/ha (lambsquarters; [4]): 100%
pest or weed control at 250 g/ha (lambsquarters; 250 g ai/ha, scale 0-100): 100%
pest or weed control at 500 g/ha (lambsquarters; [3]): 100%
pest or weed control at 62 g/ha (velvetleaf; [2]): 50%
pest or weed control at 250 g/ha (velvetleaf; 250 g ai/ha, scale 0-100): 100%
pest or weed control at 500 g/ha (velvetleaf; [3]): 100%
pest or weed control at 500 g/ha (large crabgrass; post-emergence, Postemergence, 0 to 100 scale, 0 no effect, 100 complete control, read-out: Crabgrass, Large plant response rating): 80%
pest or weed control at 2000 g/ha (large crabgrass; post-emergence, Postemergence, 0 to 100 scale, 0 no effect, 100 complete control, read-out: Plant response rating, Crabgrass, Large): 85%
pest or weed control at 2000 g/ha (large crabgrass; pre-emergence, Preemergence, visual rating, 0 to 100 scale (0 no effect, 100 complete control), read-out: Crabgrass, Large plant response rating): 95%
pest or weed control at 500 g/ha (large crabgrass; pre-emergence, preemergence, visual injury, 0 to 100 scale (0 no effect, 100 complete control), read-out: Crabgrass, Large plant response rating): 100%

Reference: patent US20060069132A1, “Azolecarboxamide herbicides” (priority 2004, published 2006)
